In US20250332173A1, “COMPOUNDS AND METHODS FOR MODULATING NUCLEIC ACID SPLICING” (REMIX THERAPEUTICS INC., priority 2021, published 2025):
Like-named read-outs stand apart in the source and are kept apart here.

How the values were obtained:
[1] = system: MYB mRNA; experiment: RT-qPCR splicing assay, MYB canonical junction (CJ) and alternative junction (AJ) mRNA; format: cell-based, human; conditions: Homo sapiens; for AC50: increase in MYB alternative junction (AJ) mRNA, read-out: MYB AJ AC50
Summary of the method: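 A673 cells (normalized to PPIA) or K562 cells (normalized to GAPDH or GUSB) were treated 24 h at 37 °C with an 11-point 3-fold dilution series, top 10 uM, DMSO ≤0.25%. Cell lysates went to one-step RT-qPCR measuring canonical- and alternative-junction MYB or HTT transcripts.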

[2] = system: HTT; experiment: HiBiT protein abundance assay, HTT HiBiT K562 cell line; format: cell-based, human; conditions: HiBiT K562 cell line, 24 hours, top dose 10 μM; read-out: Effect on protein abundance, HTT (IC50 category)
Summary of the method: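 K562 knock-in lines with endogenous HiBiT-tagged target, 10,000 cells/well in IMDM + FBS, treated 24 h at 37° C with 10-point 3-fold dilutions (top 10 μM final; DMSO ≤0.25%). Lytic Nano-Glo HiBiT luminescence normalized to untagged K562 baseline and DMSO controls; IC50 = concentration giving 50% abundance via four-parameter fit.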

[3] = Table 5 panel, canonical junction qPCR, compound concentration having 50% response in CJ decrease, read-out: MYB IC50 (decrease in CJ mRNA levels)
[4] = decrease in MYB canonical junction (CJ) mRNA, RT-qPCR, read-out: MYB CJ IC50

Row | Compound | IC50 [1, 3] [µM] | IC50 [1, 4] [µM] | IC50 [2] [µM] | AC50 ([1]; RT-qPCR) [µM]
1 | CC[C@@H]1C[C@H](n2ncc3cc(-c4cc(C)c5nc(C)cn5n4)ccc3c2=O)CCN1 [Compound 304] | 0.1 to 1 | 0.1 to 1 | 0.1 to 1 | 0.1 to 1
2 | Cc1cn2cc(-c3ccc4c(=O)n(C5CCNCC5)cnc4c3)cc(C(F)(F)F)c2n1 [Compound 306] | 1 to 10 | > 10 | 0.1 to 1 | 1 to 10
3 | Cc1cn2nc(-c3ccc4c(=O)n(C5CCN(C)CC5)ccc4c3)cc(C)c2n1 [Compound 310] | < 0.1 | < 0.1 | 0.1 to 1 | < 0.1
4 | Cc1cc(-c2cnc3c(=O)n(C4CCNCC4)cnc3c2)cc2cn(C)nc12 [Compound 311] | 1 to 10 | 1 to 10 | 1 to 10 | 1 to 10
5 | Cc1cn2nc(-c3cc(F)c4c(=O)n(C5CCNC6(CC6)C5)ncc4c3)cc(C)c2n1 (stereo not shown) [Compound 312] | < 0.1 | < 0.1 | < 0.1 | < 0.1
6 | Cn1cc2cc(-c3cc(F)c4c(=O)n(C5CCNCC5)cnc4c3)cc(F)c2n1 [Compound 314] | 1 to 10 | 1 to 10 | 1 to 10 | 1 to 10
7 | Cn1cc2cc(-c3cc(F)c4c(=O)n(C5CCNCC5)cnc4c3)c(F)cc2n1 [Compound 315] | 0.1 to 1 | 0.1 to 1 | 1 to 10 | 0.1 to 1
8 | Cn1cc2cc(-c3cc(F)c4c(=O)n(C5CCNCC5)cnc4c3)cc(C#N)c2n1 [Compound 316] | < 0.1 | < 0.1 | 0.1 to 1 | < 0.1
9 | Cc1cn2nc(-c3cc(F)c4c(=O)n(C5CCNCC5)cnc4c3)cc2c(C)n1 [Compound 318] | < 0.1 | < 0.1 | < 0.1 | < 0.1
10 | COc1cc(-c2cc(F)c3c(=O)n(C4CCNCC4)cnc3c2)cnn1 [Compound 320] | > 10 | > 10 | > 10 | > 10
11 | Cc1cn2cc(-c3cc(F)c4c(=O)n([C@H]5CCNC[C@H]5F)cnc4c3)cc(F)c2n1 [Compound 338] | < 0.1 | < 0.1 | 1 to 10 | < 0.1
12 | Cc1cn2cc(-c3cc(F)c4c(=O)n(N5CCNCC5)cnc4c3)cc(F)c2n1 [Compound 340, 5-fluoro-7-{8-fluoro-2-methylimidazo[1,2-a]pyridin-6-yl}-3-(piperazin-1-yl)quinazolin-4-one] | < 0.1 | < 0.1 | 0.1 to 1 | < 0.1
13 | Cc1cn2cc(-c3cc(F)c4c(=O)n(C5=CCNCC5)cnc4c3)cc(F)c2n1 [Compound 342] | < 0.1 | < 0.1 | 0.1 to 1 | < 0.1

Further lines, with some results ahead:

Row | IC50 [1, 3] [µM] | IC50 [1, 4] [µM] | IC50 [2] [µM] | Compound | AC50 ([1]; RT-qPCR) [µM]
14 | 1 to 10 | 1 to 10 | 1 to 10 | Cc1cn2nc(-c3ccc4c(=O)n(C5CCN(C)CC5)cnc4c3)cc2c(C)n1 [Compound 303] | 1 to 10
15 | 1 to 10 | 1 to 10 | 1 to 10 | Cc1cn2cc(-c3ccc4c(=O)n(C5CCN(C)CC5)cnc4c3)ncc2n1 [Compound 308] | 1 to 10
16 | < 0.1 | 0.1 to 1 | 0.1 to 1 | Cc1cn2cc(-c3cc(F)c4c(=O)n(C5CCNCC5)cnc4c3)cc(C)c2n1 [Compound 317] | < 0.1
17 | 0.1 to 1 | 1 to 10 | 1 to 10 | Cc1cn2cc(-c3cc(F)c4c(=O)n(C5CCNCC5)cnc4c3)nc2c(C)n1 [Compound 319] | 0.1 to 1
18 | < 0.1 | < 0.1 | < 0.1 | Cc1cn2nc(-c3cc(F)c4c(=O)n(C5CCNCC5)ccc4c3)cc(C)c2n1 [Compound 322] | < 0.1
19 | 1 to 10 | 1 to 10 | > 10 | Cc1cn2cc(-c3cc(F)c4c(=O)n(C5CCNCC5(F)F)cnc4c3)cc(F)c2n1 (stereo not shown) [Compound 339] | 1 to 10
